Assays:
GSPT1 = GSPT1 (Homo sapiens, UniProt P15170+Q96SW2); experiment: HiBiT degradation assay, GSPT1, Procedure A; format: cell-based; set-up: HiBit-GSPT1 KI HEK293(LgBit) Cells; host or cells: HEK293(LgBit) knock-in cells
Summary of the method: (§1)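 10-pt dose response, 10–0.005 μM, 0.1% DMSO; cells 1×10^6/ml in DMEM/10% FBS, 6 h, 37° C; HiBiT lytic detection, luminescence; DC50 + Ymin by 4-parameter fit.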

CK1α = target: T1, CK1α (Homo sapiens, UniProt P48729+Q96SW2); experiment: HiBiT degradation assay, CK1α, Procedure A; format: cell-based
T1 construct: CSNK1A1-HiBit KI HEK293(LgBit) Cells; host or cells: HEK293(LgBit) knock-in cells
T1 sequence (P48729 whole entry): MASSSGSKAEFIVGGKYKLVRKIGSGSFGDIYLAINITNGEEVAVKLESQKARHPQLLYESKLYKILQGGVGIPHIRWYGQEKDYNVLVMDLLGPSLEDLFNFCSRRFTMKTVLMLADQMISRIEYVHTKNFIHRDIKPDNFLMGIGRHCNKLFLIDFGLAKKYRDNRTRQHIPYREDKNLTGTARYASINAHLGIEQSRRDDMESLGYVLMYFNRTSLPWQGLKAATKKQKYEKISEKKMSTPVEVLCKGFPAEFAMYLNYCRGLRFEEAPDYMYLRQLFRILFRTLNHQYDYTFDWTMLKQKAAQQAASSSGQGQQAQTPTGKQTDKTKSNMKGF
T1 sequence (Q96SW2 whole entry): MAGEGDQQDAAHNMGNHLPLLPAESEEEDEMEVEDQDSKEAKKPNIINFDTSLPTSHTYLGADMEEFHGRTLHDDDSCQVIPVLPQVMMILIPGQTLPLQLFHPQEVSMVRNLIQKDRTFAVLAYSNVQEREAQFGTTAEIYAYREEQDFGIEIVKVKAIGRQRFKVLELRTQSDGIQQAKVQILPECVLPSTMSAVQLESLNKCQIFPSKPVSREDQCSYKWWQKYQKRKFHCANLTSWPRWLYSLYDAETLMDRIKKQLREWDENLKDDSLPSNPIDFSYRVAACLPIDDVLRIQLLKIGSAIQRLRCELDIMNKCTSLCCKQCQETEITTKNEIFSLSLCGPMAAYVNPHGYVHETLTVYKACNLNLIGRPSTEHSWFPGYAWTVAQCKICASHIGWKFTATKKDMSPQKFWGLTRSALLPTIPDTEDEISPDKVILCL
T1 sequence (Q16531 whole entry partner): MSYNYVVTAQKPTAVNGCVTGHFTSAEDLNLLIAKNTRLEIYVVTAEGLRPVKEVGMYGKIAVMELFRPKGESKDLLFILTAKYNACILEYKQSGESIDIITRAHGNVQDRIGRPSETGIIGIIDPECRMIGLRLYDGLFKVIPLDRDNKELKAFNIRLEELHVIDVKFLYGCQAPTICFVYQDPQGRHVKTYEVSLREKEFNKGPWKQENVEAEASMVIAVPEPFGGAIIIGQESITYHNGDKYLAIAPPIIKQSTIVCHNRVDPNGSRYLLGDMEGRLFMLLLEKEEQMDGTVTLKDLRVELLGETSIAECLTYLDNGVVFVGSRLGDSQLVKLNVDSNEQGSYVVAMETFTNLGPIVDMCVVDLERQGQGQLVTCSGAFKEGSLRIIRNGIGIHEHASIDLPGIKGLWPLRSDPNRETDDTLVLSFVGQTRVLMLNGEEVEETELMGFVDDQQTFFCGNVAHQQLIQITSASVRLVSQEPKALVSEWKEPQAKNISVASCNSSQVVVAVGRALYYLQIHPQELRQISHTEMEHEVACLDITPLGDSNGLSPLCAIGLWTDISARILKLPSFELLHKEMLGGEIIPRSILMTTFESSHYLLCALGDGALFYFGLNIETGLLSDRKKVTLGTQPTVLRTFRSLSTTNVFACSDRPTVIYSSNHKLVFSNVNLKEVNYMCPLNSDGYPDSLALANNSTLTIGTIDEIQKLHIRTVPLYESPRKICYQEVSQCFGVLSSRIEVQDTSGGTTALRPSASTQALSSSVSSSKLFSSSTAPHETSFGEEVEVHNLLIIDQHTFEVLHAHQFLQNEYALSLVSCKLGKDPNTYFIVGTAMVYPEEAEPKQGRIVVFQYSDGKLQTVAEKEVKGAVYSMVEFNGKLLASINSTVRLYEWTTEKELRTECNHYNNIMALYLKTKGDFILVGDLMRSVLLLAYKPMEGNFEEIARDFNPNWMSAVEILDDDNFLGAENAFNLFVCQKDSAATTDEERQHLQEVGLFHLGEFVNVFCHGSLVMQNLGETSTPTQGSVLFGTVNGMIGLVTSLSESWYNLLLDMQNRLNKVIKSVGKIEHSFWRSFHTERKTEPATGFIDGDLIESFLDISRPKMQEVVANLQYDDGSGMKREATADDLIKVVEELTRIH
Summary of the method: as §1

Sequence of GSPT1 (P15170 whole entry): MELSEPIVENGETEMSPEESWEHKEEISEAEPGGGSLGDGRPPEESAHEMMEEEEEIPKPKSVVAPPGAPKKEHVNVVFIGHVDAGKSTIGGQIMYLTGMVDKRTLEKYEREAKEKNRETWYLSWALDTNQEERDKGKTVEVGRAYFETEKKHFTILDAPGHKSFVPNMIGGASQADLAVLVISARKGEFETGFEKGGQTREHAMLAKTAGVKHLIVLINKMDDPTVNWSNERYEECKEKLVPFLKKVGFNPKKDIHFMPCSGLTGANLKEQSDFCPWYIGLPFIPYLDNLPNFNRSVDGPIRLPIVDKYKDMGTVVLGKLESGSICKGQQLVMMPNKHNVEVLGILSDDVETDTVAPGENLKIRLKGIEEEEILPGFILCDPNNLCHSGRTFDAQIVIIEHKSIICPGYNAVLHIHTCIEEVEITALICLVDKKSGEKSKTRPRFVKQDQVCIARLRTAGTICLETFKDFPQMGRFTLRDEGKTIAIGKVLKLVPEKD
Sequence of GSPT1 (Q96SW2 whole entry): as the sequence (Q96SW2 whole entry) above
Sequence of GSPT1 (Q16531 whole entry partner): as the sequence (Q16531 whole entry partner) above

SMILES	DC50 (GSPT1; six hours) [nM]	GSPT1 Ymin (GSPT1; six hours)	CK1α Ymin (CK1α; six hours)	DC50 (CK1α; six hours) [nM]	DC50 (GSPT1; six hours incubation) [nM]	GSPT1 Ymin (GSPT1; six hours incubation)	CK1α Ymin (CK1α; six hours incubation)	DC50 (CK1α; six hours incubation) [nM]
COc1ccc(-c2nc(-c3ccc4c(c3)CN(C3CCC(=O)NC3=O)C4=O)cn2C)cc1Cl (stereo not shown) [Example 584]	≥ 25	F (F = >75-100% remaining)	C (C = 0-10% remaining)	< 25	–	–	–	–
Cn1cc(-c2ccc3c(c2)CN(C2CCC(=O)NC2=O)C3=O)nc1-c1ccc(OC(F)F)cc1 (stereo not shown) [Example 569]	< 25	F (F = >75-100% remaining)	C (C = 0-10% remaining)	< 25	–	–	–	–
Cc1ncccc1-c1c(-c2ccc3c(c2)CN(C2CCC(=O)NC2=O)C3=O)cnn1C (stereo not shown) [Example 472]	≥ 25	F (F = >75-100% remaining)	E (E = >25-75% remaining)	< 25	–	–	–	–
Cn1ncc(-c2ccc3c(c2)CN(C2CCC(=O)NC2=O)C3=O)c1-c1ccc(C#N)cc1F (stereo not shown) [Example 225]	–	–	–	–	≥ 25	F (F = >75-100% remaining)	E (E = >25-75% remaining)	≥ 25
Cn1cnc(-c2ccc3c(c2)CN(C2CCC(=O)NC2=O)C3=O)c1-c1cnn(C2CCC2)c1 (stereo not shown) [Example 511]	≥ 25	F (F = >75-100% remaining)	D (D = >10- 25% remaining)	< 25	–	–	–	–
CN1CC=C(c2c(-c3ccc4c(c3)CN(C3CCC(=O)NC3=O)C4=O)ncn2C)CC1 (stereo not shown) [Example 596]	≥ 25	F (F = >75-100% remaining)	C (C = 0-10% remaining)	≥ 25	–	–	–	–
Cn1c(C2CCCCC2)nc(-c2ccc3c(c2)CN(C2CCC(=O)NC2=O)C3=O)c1-c1ccccc1 (stereo not shown) [Example 49, 3-(5-(2-Cyclohexyl-1-methyl-5-phenyl-1H-imidazol-4-yl)-1-oxoisoindolin-2-yl)piperidine-2,6-dione]	–	–	–	–	< 25	F (F = >75-100% remaining)	C (C = 0-10% remaining)	< 25
Cn1ncc(-c2ccc3c(c2)CN(C2CCC(=O)NC2=O)C3=O)c1C1=CCCCC1 (stereo not shown) [Example 589]	≥ 25	F (F = >75-100% remaining)	E (E = >25-75% remaining)	< 25	–	–	–	–
Cn1ncc(-c2ccc3c(c2)CN(C2CCC(=O)NC2=O)C3=O)c1-c1ccc(Oc2cccnc2)cc1 (stereo not shown) [Example 133]	–	–	–	–	≥ 25	F (F = >75-100% remaining)	E (E = >25-75% remaining)	≥ 25
Cc1cc(F)ccc1-c1nc(-c2ccc3c(c2)CN(C2CCC(=O)NC2=O)C3=O)cn1C (stereo not shown) [Example 560]	< 25	F (F = >75-100% remaining)	C (C = 0-10% remaining)	< 25	–	–	–	–
Cc1cc(-c2c(-c3ccc4c(c3)CN(C3CCC(=O)NC3=O)C4=O)ncn2C)n(C)n1 (stereo not shown) [Example 324]	–	–	–	–	≥ 25	F (F = >75-100% remaining)	E (E = >25-75% remaining)	≥ 25
COc1ccc(-c2c(-c3ccc4c(c3)CN(C3CCC(=O)NC3=O)C4=O)cnn2C)c(Cl)c1 (stereo not shown) [Example 65]	–	–	–	–	≥ 25	F (F = >75-100% remaining)	D (D = >10- 25% remaining)	< 25
Cn1ncc(-c2ccc3c(c2)CN(C2CCC(=O)NC2=O)C3=O)c1-c1cccc(F)c1Cl (stereo not shown) [Example 108]	–	–	–	–	≥ 25	F (F = >75-100% remaining)	E (E = >25-75% remaining)	< 25
Cn1ncc(-c2ccc3c(c2)CN(C2CCC(=O)NC2=O)C3=O)c1-c1ccc(CN2CCOCC2)cc1 (stereo not shown) [Example 214]	–	–	–	–	≥ 25	F (F = >75-100% remaining)	E (E = >25-75% remaining)	< 25
O=C1CCC(N2Cc3cc(-c4cn(C5CC5)c(-c5ccccc5)n4)ccc3C2=O)C(=O)N1 (stereo not shown) [Example 704, 3-(5-(1-cyclopropyl-2-phenyl-1H-imidazol-4-yl)-1-oxoisoindolin-2-yl)piperidine-2,6-dione]	≥ 25	F (F = >75-100% remaining)	C (C = 0-10% remaining)	< 25	–	–	–	–
O=C1CCC(N2Cc3cc(-c4cnn(CC(F)(F)F)c4-c4ccccc4)ccc3C2=O)C(=O)N1 (stereo not shown) [Example 208, 3-(1-Oxo-5-(5-phenyl-1-(2,2,2-trifluoroethyl)-1H-pyrazol-4-yl)isoindolin-2-yl)piperidine-2,6-dione]	–	–	–	–	≥ 25	F (F = >75-100% remaining)	D (D = >10- 25% remaining)	< 25
CN(C)C(=O)c1cccc(-c2c(-c3ccc4c(c3)CN(C3CCC(=O)NC3=O)C4=O)cnn2C)c1 (stereo not shown) [Example 140]	–	–	–	–	< 25	E (E = >25-75% remaining)	E (E = >25-75% remaining)	≥ 25
Cc1csc(-c2c(-c3ccc4c(c3)CN(C3CCC(=O)NC3=O)C4=O)cnn2C)c1 (stereo not shown) [Example 128]	–	–	–	–	≥ 25	F (F = >75-100% remaining)	D (D = >10- 25% remaining)	< 25
Cn1ncc(-c2ccc3c(c2)CN(C2CCC(=O)NC2=O)C3=O)c1-c1ccc(CN2CCNCC2)cc1 (stereo not shown) [Example 414]	≥ 25	F (F = >75-100% remaining)	E (E = >25-75% remaining)	≥ 25	–	–	–	–
Cn1ncc(-c2ccc3c(c2)CN(C2CCC(=O)NC2=O)C3=O)c1-c1ccc2nccnc2c1 (stereo not shown) [Example 462]	≥ 25	F (F = >75-100% remaining)	E (E = >25-75% remaining)	≥ 25	–	–	–	–

More lines, now with the values ahead:

DC50 (GSPT1; six hours) [nM]	GSPT1 Ymin (GSPT1; six hours)	CK1α Ymin (CK1α; six hours)	DC50 (CK1α; six hours) [nM]	DC50 (GSPT1; six hours incubation) [nM]	GSPT1 Ymin (GSPT1; six hours incubation)	CK1α Ymin (CK1α; six hours incubation)	DC50 (CK1α; six hours incubation) [nM]	SMILES
≥ 25	E (E = >25-75% remaining)	D (D = >10- 25% remaining)	≥ 25	–	–	–	–	Cn1cnc(-c2ccc3c(c2)CN(C2CCC(=O)NC2=O)C3=O)c1-c1cncc(N)c1 (stereo not shown) [Example 523]
–	–	–	–	< 25	F (F = >75-100% remaining)	C (C = 0-10% remaining)	< 25	Cn1cnc(-c2ccc3c(c2)CN(C2CCC(=O)NC2=O)C3=O)c1-c1cccc2c1OCC2 (stereo not shown) [Example 349]
–	–	–	–	≥ 25	E (E = >25-75% remaining)	C (C = 0-10% remaining)	< 25	Cn1cnc(-c2ccc3c(c2)CN(C2CCC(=O)NC2=O)C3=O)c1-c1ccc(Cl)s1 (stereo not shown) [Example 181]
–	–	–	–	< 25	E (E = >25-75% remaining)	C (C = 0-10% remaining)	< 25	Cn1cnc(-c2ccc3c(c2)CN(C2CCC(=O)NC2=O)C3=O)c1-c1ccc(N2CCCC2)cc1 (stereo not shown) [Example 288]
–	–	–	–	≥ 25	F (F = >75-100% remaining)	E (E = >25-75% remaining)	< 25	CN1CCN(c2ccc(-c3c(-c4ccc5c(c4)CN(C4CCC(=O)NC4=O)C5=O)ncn3C)cc2)CC1 (stereo not shown) [Example 355]
–	–	–	–	≥ 25	E (E = >25-75% remaining)	C (C = 0-10% remaining)	< 25	Cn1cnc(-c2ccc3c(c2)CN(C2CCC(=O)NC2=O)C3=O)c1-c1ccc(F)cc1 (stereo not shown) [Example 10, 3-(5-(5-(4-Fluorophenyl)-1-methyl-1H-imidazol-4-yl)-1-oxoisoindolin-2-yl)piperidine-2,6-dione]
< 25	F (F = >75-100% remaining)	D (D = >10- 25% remaining)	< 25	–	–	–	–	Cn1cnc(-c2ccc3c(c2)CN(C2CCC(=O)NC2=O)C3=O)c1-c1cccc(-n2cccn2)c1 (stereo not shown) [Example 516]
–	–	–	–	≥ 25	F (F = >75-100% remaining)	D (D = >10- 25% remaining)	≥ 25	Cn1cnc(-c2ccc3c(c2)CN(C2CCC(=O)NC2=O)C3=O)c1-c1ccn(C)c(=O)c1 (stereo not shown) [Example 328]
–	–	–	–	< 25	F (F = >75-100% remaining)	E (E = >25-75% remaining)	≥ 25	Cn1cnc(-c2ccc3c(c2)CN(C2CCC(=O)NC2=O)C3=O)c1-c1cc(Cl)cc(C#N)c1 (stereo not shown) [Example 271]
< 25	E (E = >25-75% remaining)	C (C = 0-10% remaining)	< 25	–	–	–	–	Cn1cnc(-c2ccc3c(c2)CN(C2CCC(=O)NC2=O)C3=O)c1-c1ccc2sccc2c1 (stereo not shown) [Example 515]
< 25	E (E = >25-75% remaining)	C (C = 0-10% remaining)	< 25	–	–	–	–	Cn1ccc(-c2c(-c3ccc4c(c3)CN(C3CCC(=O)NC3=O)C4=O)ncn2C)c1 (stereo not shown) [Example 521]
–	–	–	–	< 25	F (F = >75-100% remaining)	D (D = >10- 25% remaining)	< 25	Cn1cnc(-c2ccc3c(c2)CN(C2CCC(=O)NC2=O)C3=O)c1-c1ccc(CN2CCOCC2)cc1 (stereo not shown) [Example 309]
< 25	F (F = >75-100% remaining)	D (D = >10- 25% remaining)	< 25	–	–	–	–	Cn1ncc(-c2ccc3c(c2)CN(C2CCC(=O)NC2=O)C3=O)c1-c1ccc(C(C)(F)F)cc1 (stereo not shown) [Example 541, 3-(5-(5-(4-(1,1-difluoroethyl)phenyl)-1-methyl-1H-pyrazol-4-yl)-1-oxoisoindolin-2-yl)piperidine-2,6-dione]
–	–	–	–	≥ 25	F (F = >75-100% remaining)	E (E = >25-75% remaining)	< 25	Cn1cnc(-c2ccc3c(c2)CN(C2CCC(=O)NC2=O)C3=O)c1-c1cccc(C(F)(F)F)c1 (stereo not shown) [Example 280]

From patent publication US20240158370A1, “CK1 alpha AND DUAL CK1 alpha / GSPT1 DEGRADING COMPOUNDS” (Innovo Therapeutics, Inc., priority 2022, published 2024)
